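Growth conditions: 96-well plates. Treatment: test compound, 48 hours, 5 concentrations. Analysis: linear interpolation between bracketing concentrations; unreached endpoints set to highest concentration. TGI denotes the concentration required for complete inhibition of growth.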
Tests used:
Assay in all cases: NCI tumour cell line growth inhibition, 48 h
786-0 renal = tested on: 786-0 renal
A498 renal = tested on: A498 renal
A549 NSCLC = tested on: A549 NSCLC
ACHN renal = tested on: ACHN renal
BT-549 breast = tested on: BT-549 breast
CAKI-1 renal = tested on: CAKI-1 renal
CCRF-CEM leukemia = tested on: CCRF-CEM leukemia
COLO 205 colon = tested on: COLO 205 colon
DU-145 prostate = tested on: DU-145 prostate
EKVX NSCLC = tested on: EKVX NSCLC
HCC-2998 colon = tested on: HCC-2998 colon
HCT-116 colon = tested on: HCT-116 colon
HCT-15 colon = tested on: HCT-15 colon
HL-60(TB) leukemia = tested on: HL-60(TB) leukemia
HOP-62 NSCLC = tested on: HOP-62 NSCLC
HOP-92 NSCLC = tested on: HOP-92 NSCLC
HS 578T breast = tested on: HS 578T breast
HT29 colon = tested on: HT29 colon
IGROV1 ovarian = tested on: IGROV1 ovarian
K-562 leukemia = tested on: K-562 leukemia
KM12 colon = tested on: KM12 colon
LOX IMVI melanoma = tested on: LOX IMVI melanoma
M14 melanoma = tested on: M14 melanoma
MALME-3M melanoma = tested on: MALME-3M melanoma
MCF7 breast = tested on: MCF7 breast
MDA-MB-231 breast = tested on: MDA-MB-231 breast
MDA-MB-435 = tested on: MDA-MB-435
MDA-N = tested on: MDA-N
MOLT-4 leukemia = tested on: MOLT-4 leukemia
NCI-H226 lung = tested on: NCI-H226 lung
NCI-H23 lung = tested on: NCI-H23 lung
NCI-H460 lung = tested on: NCI-H460 lung
NCI-H522 lung = tested on: NCI-H522 lung
NCI/ADR-RES ovarian = tested on: NCI/ADR-RES ovarian
OVCAR-3 ovarian = tested on: OVCAR-3 ovarian
OVCAR-4 ovarian = tested on: OVCAR-4 ovarian
OVCAR-5 ovarian = tested on: OVCAR-5 ovarian
OVCAR-8 ovarian = tested on: OVCAR-8 ovarian
PC-3 prostate = tested on: PC-3 prostate
RPMI-8226 leukemia = tested on: RPMI-8226 leukemia
RXF 393 renal = tested on: RXF 393 renal
SF-268 CNS = tested on: SF-268 CNS
SF-295 CNS = tested on: SF-295 CNS
SF-539 CNS = tested on: SF-539 CNS
SK-MEL-2 melanoma = tested on: SK-MEL-2 melanoma
SK-MEL-28 melanoma = tested on: SK-MEL-28 melanoma
SK-MEL-5 melanoma = tested on: SK-MEL-5 melanoma
SK-OV-3 ovarian = tested on: SK-OV-3 ovarian
SN12C renal = tested on: SN12C renal
SNB-19 CNS = tested on: SNB-19 CNS
SNB-75 CNS = tested on: SNB-75 CNS
SR leukemia = tested on: SR leukemia
SW-620 colon = tested on: SW-620 colon
T-47D breast = tested on: T-47D breast
TK-10 renal = tested on: TK-10 renal
U251 CNS = tested on: U251 CNS
UACC-257 melanoma = tested on: UACC-257 melanoma
UACC-62 melanoma = tested on: UACC-62 melanoma
UO-31 renal = tested on: UO-31 renal

O=S(=O)(Nc1nc2ccccc2nc1Nc1ccc2ccccc2c1)c1ccccc1
TGI (786-0 renal): > 100 µM | TGI (A498 renal): > 100 µM | TGI (A549 NSCLC): > 100 µM | TGI (ACHN renal): > 100 µM | TGI (BT-549 breast): > 80.1 µM | TGI (CAKI-1 renal): 99 µM | TGI (CCRF-CEM leukemia): > 77.3 µM | TGI (COLO 205 colon): 26.3 µM | TGI (DU-145 prostate): > 100 µM | TGI (EKVX NSCLC): > 100 µM | TGI (HCC-2998 colon): 29 µM | TGI (HCT-116 colon): 24.8 µM | TGI (HCT-15 colon): > 57.5 µM | TGI (HL-60(TB) leukemia): 68.9 µM | TGI (HOP-62 NSCLC): 30.8 µM | TGI (HOP-92 NSCLC): 51.3 µM | TGI (HS 578T breast): > 74.5 µM | TGI (HT29 colon): 25.1 µM | TGI (IGROV1 ovarian): > 57.9 µM | TGI (K-562 leukemia): > 100 µM | TGI (KM12 colon): > 59.3 µM | TGI (LOX IMVI melanoma): 48.8 µM | TGI (M14 melanoma): > 57.2 µM | TGI (MALME-3M melanoma): > 100 µM | TGI (MCF7 breast): > 100 µM | TGI (MDA-MB-231 breast): > 100 µM | TGI (MDA-MB-435): > 100 µM | TGI (MDA-N): > 100 µM | TGI (MOLT-4 leukemia): 65.1 µM | TGI (NCI-H226 lung): > 84.2 µM | TGI (NCI-H23 lung): 41.3 µM | TGI (NCI-H460 lung): 28.8 µM | TGI (NCI-H522 lung): 39.6 µM | TGI (NCI/ADR-RES ovarian): > 100 µM | TGI (OVCAR-3 ovarian): 8.96 µM | TGI (OVCAR-4 ovarian): > 44.9 µM | TGI (OVCAR-5 ovarian): 81.2 µM | TGI (OVCAR-8 ovarian): > 100 µM | TGI (PC-3 prostate): > 37.2 µM | TGI (RPMI-8226 leukemia): > 47 µM | TGI (RXF 393 renal): 86.1 µM | TGI (SF-268 CNS): > 67.7 µM | TGI (SF-295 CNS): 47.3 µM | TGI (SF-539 CNS): 45.8 µM | TGI (SK-MEL-2 melanoma): 14 µM | TGI (SK-MEL-28 melanoma): > 100 µM | TGI (SK-MEL-5 melanoma): 42.6 µM | TGI (SK-OV-3 ovarian): > 100 µM | TGI (SN12C renal): > 68.9 µM | TGI (SNB-19 CNS): > 100 µM | TGI (SNB-75 CNS): > 73.6 µM | TGI (SR leukemia): > 87.4 µM | TGI (SW-620 colon): > 100 µM | TGI (T-47D breast): > 100 µM | TGI (TK-10 renal): > 82.7 µM | TGI (U251 CNS): > 100 µM | TGI (UACC-257 melanoma): > 100 µM | TGI (UACC-62 melanoma): 43.8 µM | TGI (UO-31 renal): 39.5 µM

From PubChem BioAssay (NCI)
